Experiments:
[1] = Long-term stability in the preferred embodiment (HPLC and/or bioactivity)
Description: The vials containing 1 mL of formulated drug were put into thermostatted chambers and assayed for % peptide remaining as a function of time after storage at different temperatures. Bioactivity of the formulations at the time points was also measured.
GRF activity was assessed similarly using a cell line containing an expressed GRF receptor and monitoring the response of cell to GRF by the cAMP-responsive secreted alkaline phosphatase reporter system.

[2] = pH 7.4; cited from earlier work
[3] = Tolerability and response after subcutaneous or intravenous delivery of the formulations in humans
[4] = Stability of GLP-1, PTH and GRF in the preferred formulation by reversed phase HPLC (percent peptide remaining); settings: 10 mM acetate; for Percent peptide remaining: 5.07% (w/v) D-mannitol, pH 4.7; for stability: 4, 8, and 10 mg/mL, pH 4.7, 5.07% D-mannitol
Description: The vials were stored at the indicated temperatures for the indicated times. Samples were removed and assayed for the loss of parent peptide by HPLC, using a reversed phase C18 (1×15 cm) analytical column. Samples (10 μl) were injected directly and resolved with a gradient of acetonitrile in water, in the presence of 0.1% trifluoroacetic acid. Percent peptide remaining at the times indicated was calculated as the area of the intact peptide divided by the total area of the intact peptide plus that of the decomposition products times 100.

[5] = Total GRF in plasma after intravenous bolus in a rat; assay type: in vivo; settings: intravenous bolus of 20 μg, 10 mM sodium acetate, 5.07% D-mannitol, pH 4.7
Description: Total GRF detected in the plasma of a rat following intravenous administration of 20 μg of GRF in the preferred formulation (4 mg/mL GRF dissolved in 10 mM sodium acetate, 5.07% D-mannitol, adjusted to pH 4.7).

Compound	period over which the peptide was stable ([1]; about 0.005 to 1.0 mg/mL, 4° C., inventive formulations) [months]	solubility at physiological pH [2]	stability (additional formulations, extended periods) ([1]; 4-6 weeks at 25° C.)	stability (additional formulations, extended periods) ([1]; 12 months at 4° C.)	stability compared with the GLP-1 formulations ([1]; formulations where the peptide is GRF or PTH, Drawings 3, 5)	complications of delivery ([3]; human subjects, intravenous and subcutaneous delivery, preferred formulations)	discomfort at the injection site ([3]; humans, subcutaneous, about 1 mL)	Percent peptide remaining ([4]; 4 mg/mL, 14 days, 4° C.) [%]	Percent peptide remaining ([4]; 4 mg/mL, 14 days, 25° C.) [%]	Percent peptide remaining ([4]; 4 mg/mL, 14 days, 50° C.) [%]	Percent peptide remaining ([4]; 8 mg/mL, 14 days, 4° C.) [%]	Percent peptide remaining ([4]; 8 mg/mL, 14 days, 25° C.) [%]	Percent peptide remaining ([4]; 8 mg/mL, 14 days, 50° C.) [%]	Percent peptide remaining ([4]; 10 mg/mL, 14 days, 4° C.) [%]	Percent peptide remaining ([4]; 10 mg/mL, 14 days, 25° C.) [%]	Percent peptide remaining ([4]; 10 mg/mL, 14 days, 50° C.) [%]	stability ([4]; 25° C., 14 days)	stability ([4]; 50° C., 14 days) [%]	stability ([4]; −20° C. to 4° C., over 14 days)	appearance of peptide in blood plasma [5]
PTH(1-34)OH	4	up to 4 mg/mL																		
CC[C@H](C)[C@H](NC(=O)[C@H](C)NC(=O)[C@H](CC(=O)O)NC(=O)[C@H](C)NC(=O)[C@@H](N)Cc1ccc(O)cc1)C(=O)N[C@@H](Cc1ccccc1)C(=O)N[C@H](C(=O)N[C@@H](CC(N)=O)C(=O)N[C@@H](CO)C(=O)N[C@@H](Cc1ccc(O)cc1)C(=O)N[C@@H](CCCNC(=N)N)C(=O)N[C@@H](CCCCN)C(=O)N[C@H](C(=O)N[C@@H](CC(C)C)C(=O)NCC(=O)N[C@@H](CCC(N)=O)C(=O)N[C@@H](CC(C)C)C(=O)N[C@@H](CO)C(=O)N[C@@H](C)C(=O)N[C@@H](CCCNC(=N)N)C(=O)N[C@@H](CCCCN)C(=O)N[C@@H](CC(C)C)C(=O)N[C@@H](CC(C)C)C(=O)N[C@@H](CCC(N)=O)C(=O)N[C@@H](CC(=O)O)C(=O)N[C@H](C(=O)N[C@@H](CCSC)C(=O)N[C@@H](CO)C(=O)N[C@@H](CCCNC(=N)N)C(=O)N[C@@H](CCC(N)=O)C(=O)N[C@@H](CCC(N)=O)C(=O)NCC(=O)N[C@@H](CCC(=O)O)C(=O)N[C@@H](CO)C(=O)N[C@@H](CC(N)=O)C(=O)N[C@@H](CCC(N)=O)C(=O)N[C@@H](CCC(=O)O)C(=O)N[C@@H](CCCNC(=N)N)C(=O)NCC(=O)N[C@@H](C)C(=O)N[C@@H](CCCNC(=N)N)C(=O)N[C@@H](C)C(=O)N[C@@H](CCCNC(=N)N)C(=O)N[C@@H](CC(C)C)C(N)=O)[C@@H](C)CC)C(C)C)[C@@H](C)O [GRF, GRF(1-44)amide]			at least 90%	at least 90%	comparable stability	no significant complications	no apparent discomfort	98	96	63	98	96	63	98	96	63	at least 96%	63	at least 98%	rapidly appears in the blood plasma
